The supplement of paper PMC4862054

What was measured:
Assay in all cases: normalised viability (% of control), CellTiter-Blue; higher = more viable cells (about 100 = DMSO control)
[1] = tested on: SK-BR-3; conditions: 100 nM; incubation time: 72 h
Description: (§1)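 DSRT, CellTiter-Blue viability, 72 h incubation. Signal is normalised to DMSO and benzethonium chloride controls. Value is the normalised response at dose 3.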

[2] = tested on: MDA-MB-436; conditions: 100 nM; incubation time: 72 h
Description: as §1

[3] = tested on: Hs578T; conditions: 100 nM; incubation time: 72 h
Description: as §1

[4] = tested on: CAL-85-1; conditions: 10 nM; incubation time: 72 h
Description: as §1

[5] = tested on: DU-4475; conditions: 10 nM; incubation time: 72 h
Description: as §1

[6] = tested on: BT-549; conditions: 100 nM; incubation time: 72 h
Description: as §1

[7] = tested on: MDA-MB-468; conditions: 100 nM; incubation time: 72 h
Description: as §1

[8] = tested on: CAL-51; conditions: 10 nM; incubation time: 72 h
Description: as §1

[9] = tested on: MDA-MB-453; conditions: 10 nM; incubation time: 72 h
Description: as §1

[10] = tested on: BT-474; conditions: 100 nM; incubation time: 72 h
Description: as §1

[11] = tested on: HCC1599; conditions: 100 nM; incubation time: 72 h
Description: as §1

[12] = tested on: MDA-MB-231; conditions: 100 nM; incubation time: 72 h
Description: as §1

[13] = tested on: HCC1937; conditions: 100 nM; incubation time: 72 h
Description: as §1

[14] = tested on: HDQ-P1; conditions: 10 nM; incubation time: 72 h
Description: as §1

[15] = tested on: HCC1143; conditions: 100 nM; incubation time: 72 h
Description: as §1

[16] = tested on: MFM-223; conditions: 100 nM; incubation time: 72 h
Description: as §1

[17] = tested on: CAL-148; conditions: 10 nM; incubation time: 72 h
Description: as §1

[18] = tested on: CAL-120; conditions: 100 nM; incubation time: 72 h
Description: as §1

[19] = tested on: SK-BR-3; conditions: incubation time: 72 h
Method in brief: (§2)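 Breast cancer cell lines were treated for 72 h in 384-well format and measured by CellTiter-Blue fluorescence at 560/590 nm. Results were normalised per plate to vehicle (100) and a positive kill control (0). The entry is normalised viability at a single listed concentration of the series.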

[20] = tested on: MDA-MB-436; conditions: incubation time: 72 h
Method in brief: as §2

[21] = tested on: Hs578T; conditions: incubation time: 72 h
Method in brief: as §2

[22] = tested on: CAL-85-1; conditions: incubation time: 72 h
Method in brief: as §2

[23] = tested on: DU-4475; conditions: incubation time: 72 h
Method in brief: as §2

[24] = tested on: BT-549; conditions: incubation time: 72 h
Method in brief: as §2

[25] = tested on: MDA-MB-468; conditions: incubation time: 72 h
Method in brief: as §2

[26] = tested on: CAL-51; conditions: incubation time: 72 h
Method in brief: as §2

[27] = tested on: MDA-MB-453; conditions: incubation time: 72 h
Method in brief: as §2

[28] = tested on: BT-474; conditions: incubation time: 72 h
Method in brief: as §2

[29] = tested on: HCC1599; conditions: incubation time: 72 h
Method in brief: as §2

[30] = tested on: MDA-MB-231; conditions: incubation time: 72 h
Method in brief: as §2

[31] = tested on: HCC1937; conditions: incubation time: 72 h
Method in brief: as §2

[32] = tested on: HDQ-P1; conditions: incubation time: 72 h
Method in brief: as §2

[33] = tested on: HCC1143; conditions: incubation time: 72 h
Method in brief: as §2

[34] = tested on: MFM-223; conditions: incubation time: 72 h
Method in brief: as §2

[35] = tested on: CAL-148; conditions: incubation time: 72 h
Method in brief: as §2

[36] = tested on: CAL-120; conditions: incubation time: 72 h
Method in brief: as §2

C[C@@H](CN1CC(=O)NC(=O)C1)N1CC(=O)NC(=O)C1 [Dexrazoxane]
Conditions | normalised viability [%]
[1] | 61
[2] | 101
[3] | 89
[4] | 110
[5] | 110
[6] | 78.5
[7] | 109
[8] | 95.6
[9] | 94.6
[10] | 107
[11] | 124
[12] | 96.6
[13] | 103
[14] | 91
[15] | 88.6
[16] | 93.3
[17] | 85
[18] | 91.8

normalised viability [%]
Conditions | 3 nM | 10 nM | 30 nM | 100 nM | 1000 nM | 10000 nM
[19] | – | 93.8 | – | – | 105 | 103
[20] | – | 91.8 | – | – | 95.8 | 95.6
[21] | – | 87.7 | – | – | 88.8 | 92.1
[22] | 98.4 | – | 93.7 | 96.7 | – | –
[23] | 103 | – | 97.4 | 104 | – | –
[24] | – | 87.2 | – | – | 79.2 | 76.8
[25] | – | 101 | – | – | 97.4 | 100
[26] | 93.9 | – | 96.1 | 92.8 | – | –
[27] | 104 | – | 103 | 101 | – | –
[28] | – | 100 | – | – | 101 | 114
[29] | – | 123 | – | – | 93.3 | 115
[30] | – | 95 | – | – | 96.6 | 107
[31] | – | 99.1 | – | – | 82 | 92.3
[32] | 108 | – | 107 | 44.3 | – | –
[33] | – | 88 | – | – | 94.5 | 99.6
[34] | – | 95.2 | – | – | 91.2 | 93
[35] | 84.4 | – | 92.6 | 91.5 | – | –
[36] | – | 90.1 | – | – | 100 | 100
